The results in this text go back to patent US20240383875A1, “Benzimidazole Pyridine Derivatives” (Hoffmann-La Roche Inc., priority 2022, published 2024).

What all share (format): biochemical
Experiment [1] has as its target SIK1 (Homo sapiens, UniProt P57059). The experiment can be described thus: Enzymatic activity assay SIK1, RapidFire mass spectrometry (phosphorylation of CHK-peptide). Conditions: RapidFire MS, inhibition of SIK1; read-out: SIK1 RF IC50. In short, it runs like this:
(§1)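 Compounds (12-point, 3-fold, generally 30 μM to 170 pM) were pre-incubated 30 min at ambient temperature with SIK1 (5 nM), SIK2 (0.5 nM) or SIK3 (1.5 nM) in HEPES pH 7.0/magnesium acetate buffer. CHK-peptide (10 μM solution) and ATP (100 μM solution) were then added for 45 min before formic acid quench.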

In experiment [2] the target is SIK3 (Homo sapiens, UniProt Q9Y2K2). As to the kind of experiment: Enzymatic activity assay SIK3, RapidFire mass spectrometry (phosphorylation of CHK-peptide). Conditions: RapidFire MS, inhibition of SIK3; read-out: SIK3 RF IC50. Summed up:
as §1

Experiment [3] addresses SIK2 (Homo sapiens, UniProt Q9H0K1). As to the kind of experiment: Enzymatic activity assay SIK2, RapidFire mass spectrometry (phosphorylation of CHK-peptide). Conditions: RapidFire MS, inhibition of SIK2; read-out: SIK2 RF IC50. Summed up:
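SIK2 (0.5 nM) in pH 7.0 HEPES buffer with 10 mM Mg acetate phosphorylates CHK-peptide (10 μM solution) with 100 μM ATP solution, 45 min ambient, then formic acid quench.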

pIC50: −log10 of the molar value.

SIK2, sequence (Q9H0K1 whole entry): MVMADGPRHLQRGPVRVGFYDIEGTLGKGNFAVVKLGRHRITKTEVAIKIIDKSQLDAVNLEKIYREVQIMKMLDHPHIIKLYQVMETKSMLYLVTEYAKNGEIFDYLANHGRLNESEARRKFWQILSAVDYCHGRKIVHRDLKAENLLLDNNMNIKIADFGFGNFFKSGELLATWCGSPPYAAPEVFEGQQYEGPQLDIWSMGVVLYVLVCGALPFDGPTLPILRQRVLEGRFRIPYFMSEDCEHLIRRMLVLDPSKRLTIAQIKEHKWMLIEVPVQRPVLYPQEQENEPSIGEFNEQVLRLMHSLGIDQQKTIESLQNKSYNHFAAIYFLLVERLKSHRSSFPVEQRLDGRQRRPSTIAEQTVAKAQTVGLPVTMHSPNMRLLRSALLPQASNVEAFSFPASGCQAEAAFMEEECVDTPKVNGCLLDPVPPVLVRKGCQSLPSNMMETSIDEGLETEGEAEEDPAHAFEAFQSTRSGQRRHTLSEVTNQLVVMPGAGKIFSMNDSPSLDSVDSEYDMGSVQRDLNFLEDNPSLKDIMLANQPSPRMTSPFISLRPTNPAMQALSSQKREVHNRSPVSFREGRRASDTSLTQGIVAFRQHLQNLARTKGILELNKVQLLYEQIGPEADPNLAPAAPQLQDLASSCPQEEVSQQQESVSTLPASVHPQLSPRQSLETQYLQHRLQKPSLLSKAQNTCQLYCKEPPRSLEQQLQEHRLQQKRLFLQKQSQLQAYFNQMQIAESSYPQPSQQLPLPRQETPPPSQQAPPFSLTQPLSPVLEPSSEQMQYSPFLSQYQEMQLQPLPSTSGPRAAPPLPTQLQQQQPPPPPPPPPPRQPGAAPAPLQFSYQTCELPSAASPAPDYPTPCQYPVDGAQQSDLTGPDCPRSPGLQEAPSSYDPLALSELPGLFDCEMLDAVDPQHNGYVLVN
SIK1, sequence (P57059 whole entry): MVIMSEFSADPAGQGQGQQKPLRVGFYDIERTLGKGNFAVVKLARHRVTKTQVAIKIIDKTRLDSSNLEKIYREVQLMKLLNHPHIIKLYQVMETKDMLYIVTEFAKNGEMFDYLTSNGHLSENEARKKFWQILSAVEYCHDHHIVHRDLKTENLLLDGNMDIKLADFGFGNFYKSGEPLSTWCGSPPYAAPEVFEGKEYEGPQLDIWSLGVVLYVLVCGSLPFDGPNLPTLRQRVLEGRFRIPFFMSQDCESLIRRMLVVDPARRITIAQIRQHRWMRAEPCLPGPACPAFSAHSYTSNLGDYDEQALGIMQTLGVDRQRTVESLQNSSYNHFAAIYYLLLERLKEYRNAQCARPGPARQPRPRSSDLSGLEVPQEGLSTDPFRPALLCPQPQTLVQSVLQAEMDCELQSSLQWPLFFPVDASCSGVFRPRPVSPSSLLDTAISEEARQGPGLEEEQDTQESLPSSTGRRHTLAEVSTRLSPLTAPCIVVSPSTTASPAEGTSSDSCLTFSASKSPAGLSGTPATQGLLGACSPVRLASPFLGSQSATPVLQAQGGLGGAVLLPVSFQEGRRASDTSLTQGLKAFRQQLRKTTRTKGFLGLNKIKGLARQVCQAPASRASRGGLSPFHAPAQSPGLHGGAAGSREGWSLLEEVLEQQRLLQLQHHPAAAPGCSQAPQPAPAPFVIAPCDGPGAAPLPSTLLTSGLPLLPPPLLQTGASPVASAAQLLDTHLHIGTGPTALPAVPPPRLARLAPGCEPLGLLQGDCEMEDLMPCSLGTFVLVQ
SIK3, sequence (Q9Y2K2 whole entry): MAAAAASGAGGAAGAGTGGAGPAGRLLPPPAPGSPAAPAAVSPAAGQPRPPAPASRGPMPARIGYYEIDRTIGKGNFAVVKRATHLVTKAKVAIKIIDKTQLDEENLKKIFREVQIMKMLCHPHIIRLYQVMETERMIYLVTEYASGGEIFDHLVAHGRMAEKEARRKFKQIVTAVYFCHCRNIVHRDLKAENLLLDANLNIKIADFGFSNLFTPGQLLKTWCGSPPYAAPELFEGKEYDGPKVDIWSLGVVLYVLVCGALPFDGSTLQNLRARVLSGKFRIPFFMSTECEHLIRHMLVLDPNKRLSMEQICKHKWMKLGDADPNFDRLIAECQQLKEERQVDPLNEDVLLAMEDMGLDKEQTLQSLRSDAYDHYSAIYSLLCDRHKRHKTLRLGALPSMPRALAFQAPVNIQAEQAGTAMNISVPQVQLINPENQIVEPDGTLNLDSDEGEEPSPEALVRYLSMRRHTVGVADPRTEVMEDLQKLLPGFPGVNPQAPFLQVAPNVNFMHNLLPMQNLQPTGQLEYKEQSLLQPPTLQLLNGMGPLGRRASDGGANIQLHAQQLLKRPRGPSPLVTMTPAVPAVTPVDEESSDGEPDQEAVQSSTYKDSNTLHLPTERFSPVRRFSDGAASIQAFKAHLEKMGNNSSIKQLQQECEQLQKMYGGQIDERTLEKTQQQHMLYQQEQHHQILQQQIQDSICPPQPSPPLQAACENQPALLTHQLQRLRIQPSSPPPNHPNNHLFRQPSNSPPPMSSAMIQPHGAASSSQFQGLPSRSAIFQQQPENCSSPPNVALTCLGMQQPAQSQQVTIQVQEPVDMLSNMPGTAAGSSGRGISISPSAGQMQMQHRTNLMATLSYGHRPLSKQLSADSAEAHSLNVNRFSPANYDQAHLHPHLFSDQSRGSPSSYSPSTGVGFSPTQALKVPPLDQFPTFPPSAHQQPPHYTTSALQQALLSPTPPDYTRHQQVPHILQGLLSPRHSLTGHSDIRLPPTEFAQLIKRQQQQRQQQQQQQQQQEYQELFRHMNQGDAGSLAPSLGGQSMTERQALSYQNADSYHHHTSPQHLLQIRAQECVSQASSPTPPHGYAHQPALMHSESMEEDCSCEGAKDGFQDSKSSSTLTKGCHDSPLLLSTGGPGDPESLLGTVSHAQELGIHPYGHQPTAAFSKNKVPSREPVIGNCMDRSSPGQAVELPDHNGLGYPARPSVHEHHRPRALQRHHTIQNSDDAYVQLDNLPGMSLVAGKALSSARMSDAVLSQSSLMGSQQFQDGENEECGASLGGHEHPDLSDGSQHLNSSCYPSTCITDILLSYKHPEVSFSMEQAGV

Take `Cc1ccc(Nc2ccc3c(c2)ncn3-c2ccc(C(C)O)c(-n3nc(C#N)c4c3CCNC4)n2)nn1` (stereo not drawn) [Example 205, 1-[3-(1-Hydroxyethyl)-6-[5-[(6-methylpyridazin-3-yl)amino]benzimidazol-1-yl]-2-pyridyl]-4,5,6,7-tetrahydropyrazolo[4,3-c]pyridine-3-carbonitrile]: the negative-log IC50 (pIC50) is 8.52 in experiment [1], 9.52 in experiment [2] and 9.52 in experiment [3].
Consider `Cc1cc(C#N)nn1-c1nc(-n2cnc3cc(Nc4ccc(OCCN5CCS(=O)(=O)CC5)nn4)ccc32)ccc1C(C)O` (stereo not drawn) [Example 206, 1-[6-[5-[[6-[2-(1,1-Diketo-1,4-thiazinan-4-yl)ethoxy]pyridazin-3-yl]amino]benzimidazol-1-yl]-3-(1-hydroxyethyl)-2-pyridyl]-5-methyl-pyrazole-3-carbonitrile], for which the pIC50 is 7.14 in experiment [1], 8.28 in experiment [2] and 8.35 in experiment [3].
Take `Cc1cc(C#N)nn1-c1nc(-n2cnc3cc(Nc4ccc(OC5COC5)nn4)ccc32)ccc1C(C)O` (stereo not drawn) [Example 207, 1-[3-(1-Hydroxyethyl)-6-[5-[[6-(oxetan-3-yloxy)pyridazin-3-yl]amino]benzimidazol-1-yl]-2-pyridyl]-5-methyl-pyrazole-3-carbonitrile]: the pIC50 is 7.57 in experiment [1], 8.59 in experiment [2] and 8.43 in experiment [3].
For the molecule `Cc1ccc(Nc2ccc3c(c2)ncn3-c2ccc(C(C)O)c(O[C@H]3CCNC3)n2)nn1` (stereo partly drawn) [Example 208, 1-[6-[5-[(6-Methylpyridazin-3-yl)amino]benzimidazol-1-yl]-2-[(3S)-pyrrolidin-3-yl]oxy-3-pyridyl]ethanol], the pIC50 was 6.34 in experiment [1], 8.32 in experiment [2] and 7.53 in experiment [3].
In the case of `Cc1cc(C#N)nn1-c1nc(-n2cnc3ccc(CN4CCCC4=O)cc32)ccc1C(C)O` (stereo not drawn) [Example 212, 1-[3-(1-Hydroxyethyl)-6-[6-[(2-oxopyrrolidin-1-yl)methyl]benzimidazol-1-yl]-2-pyridyl]-5-methyl-pyrazole-3-carbonitrile], the results for the pIC50 in experiment [1], in experiment [2] and in experiment [3] were 6.34, 5.80 and 6.53, respectively.
With `Cc1cc(C#N)nn1-c1nc(-n2cnc3cc(CN4CCCC4=O)ccc32)ccc1C(C)O` (stereo not drawn) [Example 213, 1-[3-(1-Hydroxyethyl)-6-[5-[(2-oxopyrrolidin-1-yl)methyl]benzimidazol-1-yl]-2-pyridyl]-5-methyl-pyrazole-3-carbonitrile], the pIC50 was 5.12 in experiment [1], 6.76 in experiment [2] and 5.82 in experiment [3].
Turning to `COc1cc(C)n(-c2nc(-n3cnc4cc(Nc5ccc(C)nn5)ccc43)ccc2C(C)O)n1` (stereo not drawn) [Example 214, 1-[2-(3-Methoxy-5-methyl-pyrazol-1-yl)-6-[5-[(6-methylpyridazin-3-yl)amino]benzimidazol-1-yl]-3-pyridyl]ethanol; formic acid], the results for the pIC50 in experiment [1], in experiment [2] and in experiment [3] were 5.84, 8.46 and 7.68, respectively.
For the molecule `Cc1cc(C#N)nn1-c1nc(-n2cnc3ccc(CN4CCCCC4=O)cc32)ccc1C(C)O` (stereo not drawn) [Example 215, 1-[3-(1-Hydroxyethyl)-6-[6-[(2-oxo-1-piperidyl)methyl]benzimidazol-1-yl]-2-pyridyl]-5-methyl-pyrazole-3-carbonitrile], the values for the pIC50 in experiment [1], in experiment [2] and in experiment [3] were 6.46, 5.73 and 6.43, respectively.
For the molecule `Cc1cc(C#N)nn1-c1nc(-n2cnc3cc(CN4CCCCC4=O)ccc32)ccc1C(C)O` (stereo not drawn) [Example 216, 1-[3-(1-Hydroxyethyl)-6-[5-[(2-oxo-1-piperidyl)methyl]benzimidazol-1-yl]-2-pyridyl]-5-methyl-pyrazole-3-carbonitrile], the results for the pIC50 in experiment [1], in experiment [2] and in experiment [3] were 4.96, 6.32 and 5.65, respectively.
As for `Cc1cc(C(=O)N(C)C)c(Nc2ccc3c(c2)ncn3-c2ccc(C(C)O)c(-n3nc(C#N)cc3C)n2)nn1` (stereo not drawn) [Example 219, 3-[[1-[6-(3-Cyano-5-methyl-pyrazol-1-yl)-5-(1-hydroxyethyl)-2-pyridyl]benzimidazol-5-yl]amino]-N,N,6-trimethyl-pyridazine-4-carboxamide], the pIC50 was 5.66 in experiment [1], 8.38 in experiment [2] and 8.17 in experiment [3].
On to `Cc1ccc(Nc2ccc3c(c2)ncn3-c2ccc(C(C)O)c(-c3ccc(O)cc3C#N)n2)nn1` (stereo not drawn) [Example 220, 5-Hydroxy-2-[3-(1-hydroxyethyl)-6-[5-[(6-methylpyridazin-3-yl)amino]benzimidazol-1-yl]-2-pyridyl]benzonitrile; formic acid], for which the pIC50 in experiment [1] was 5.17; in experiment [2], 7.34; in experiment [3] it was 6.81.
With `Cc1ccc(Nc2ccc3c(c2)ncn3-c2ccc(C(C)O)c(-c3cc(C(F)(F)F)n[nH]c3=O)n2)nn1` (stereo not drawn) [Example 223, 5-[3-(1-Hydroxyethyl)-6-[5-[(6-methylpyridazin-3-yl)amino]benzimidazol-1-yl]-2-pyridyl]-3-(trifluoromethyl)-1H-pyridazin-6-one; formic acid], the pIC50 in experiment [1] was less than 4.52; in experiment [2], 6.48; in experiment [3], 5.80.
For the molecule `Cc1ccc(Nc2ccc3c(c2)ncn3-c2ccc(C(C)O)c(-c3occc3C#N)n2)nn1` (stereo not drawn) [Example 226, 2-[3-(1-Hydroxyethyl)-6-[5-[(6-methylpyridazin-3-yl)amino]benzimidazol-1-yl]-2-pyridyl]furan-3-carbonitrile], the pIC50 in experiment [1] is less than 4.52; in experiment [2], 7.66; in experiment [3], 7.21.
With `Cc1ccc(Nc2ccc3c(c2)ncn3-c2ccc(C(C)O)c(-c3ccnn3C3CC3(F)F)n2)nn1` (stereo not drawn) [Example 227, 1-[2-[2-(2,2-Difluorocyclopropyl)pyrazol-3-yl]-6-[5-[(6-methylpyridazin-3-yl)amino]benzimidazol-1-yl]-3-pyridyl]ethanol; formic acid], the pIC50 is 5.38 in experiment [1], 7.54 in experiment [2] and 6.65 in experiment [3].
`Cc1cc(C#N)nn1-c1nc(-n2cnc3cc(Nc4ccc(C5COC5)nn4)ccc32)ccc1C(C)O` (stereo not drawn) [Example 228, 1-[3-(1-Hydroxyethyl)-6-[5-[[6-(oxetan-3-yl)pyridazin-3-yl]amino]benzimidazol-1-yl]-2-pyridyl]-5-methyl-pyrazole-3-carbonitrile]: the pIC50 was 7.04 in experiment [1], 9.05 in experiment [2] and 9.00 in experiment [3].
`Cc1ccc(Nc2ccc3c(c2)ncn3-c2ccc([C@H](C)O)c(-n3nc(C(F)F)cc3C)n2)nn1` [Example 229, (1S)-1-[2-[3-(Difluoromethyl)-5-methyl-pyrazol-1-yl]-6-[5-[(6-methylpyridazin-3-yl)amino]benzimidazol-1-yl]-3-pyridyl]ethanol]: the pIC50 in experiment [1] was 6.65; in experiment [2] it was 9.40; in experiment [3], 8.82.
In the same order, the values of `Cc1ccc(Nc2ccc3c(c2)ncn3-c2ccc([C@@H](C)O)c(-n3nc(C(F)F)cc3C)n2)nn1` [Example 230, (1R)-1-[2-[3-(Difluoromethyl)-5-methyl-pyrazol-1-yl]-6-[5-[(6-methylpyridazin-3-yl)amino]benzimidazol-1-yl]-3-pyridyl]ethanol] are 5.15, 7.71 and 7.14.
As to `Cc1ccc(Nc2ccc3c(c2)ncn3-c2ccc(C(C)O)c(-n3nc(C)cc3C(F)F)n2)nn1` (stereo not drawn) [Example 231, 1-[2-[5-(difluoromethyl)-3-methyl-pyrazol-1-yl]-6-[5-[(6-methylpyridazin-3-yl)amino]benzimidazol-1-yl]-3-pyridyl]ethanol], the values for the pIC50 in experiment [1], in experiment [2] and in experiment [3] were 5.98, 8.70 and 7.89, respectively.
Regarding `COCC(O)c1ccc(-n2cnc3cc(Nc4ccc(C)nn4)ccc32)nc1-n1nc(C#N)cc1C` (stereo not drawn) [Example 234, 1-[3-(1-Hydroxy-2-methoxy-ethyl)-6-[5-[(6-methylpyridazin-3-yl)amino]benzimidazol-1-yl]-2-pyridyl]-5-methyl-pyrazole-3-carbonitrile; formic acid], the pIC50 is 6.12 in experiment [1], 8.96 in experiment [2] and 8.03 in experiment [3].
Take `COCC(O)c1ccc(-n2cnc3ccc(Nc4ccc(C)nn4)cc32)nc1-n1nc(C#N)cc1C` (stereo not drawn) [Example 235, 1-[3-(1-Hydroxy-2-methoxy-ethyl)-6-[6-[(6-methylpyridazin-3-yl)amino]benzimidazol-1-yl]-2-pyridyl]-5-methyl-pyrazole-3-carbonitrile]: the pIC50 was 6.19 in experiment [1], 6.70 in experiment [2] and 6.61 in experiment [3].
As for `Cc1ccc(Nc2cc3ncn(-c4ccc([C@H](C)O)c(-n5nc(C#N)cc5C)n4)c3cc2F)nn1` [Example 236, 1-[6-[6-Fluoro-5-[(6-methylpyridazin-3-yl)amino]benzimidazol-1-yl]-3-[(1S)-1-hydroxyethyl]-2-pyridyl]-5-methyl-pyrazole-3-carbonitrile], the pIC50 was 7.08 in experiment [1], 9.52 in experiment [2] and 9.52 in experiment [3].
Take `Cc1ccc(Nc2cc3ncn(-c4ccc([C@@H](C)O)c(-n5nc(C#N)cc5C)n4)c3cc2F)nn1` [Example 237, 1-[6-[6-Fluoro-5-[(6-methylpyridazin-3-yl)amino]benzimidazol-1-yl]-3-[(1R)-1-hydroxyethyl]-2-pyridyl]-5-methyl-pyrazole-3-carbonitrile]: the results for the pIC50 in experiment [1], in experiment [2] and in experiment [3] were 5.11, 7.28 and 7.30, respectively.

A word on the pIC50: it is −log10 of the IC50, conventionally taken in molar units.
